7 molecules from publication PMC8667043, “First-in-Class Inhibitors of the Ribosomal Oxygenase MINA53” (Journal of Medicinal Chemistry, 2021) can be followed below.

One test concerns the target T1, NO66 (Homo sapiens, UniProt Q9H6W3).
T1 construct: histidine tag (TEV-cleavable) (cleaved yes); made in house; host or cells: E. coli BL21(DE3)-R3-pRARE2
T1 sequence (Q9H6W3 183-641): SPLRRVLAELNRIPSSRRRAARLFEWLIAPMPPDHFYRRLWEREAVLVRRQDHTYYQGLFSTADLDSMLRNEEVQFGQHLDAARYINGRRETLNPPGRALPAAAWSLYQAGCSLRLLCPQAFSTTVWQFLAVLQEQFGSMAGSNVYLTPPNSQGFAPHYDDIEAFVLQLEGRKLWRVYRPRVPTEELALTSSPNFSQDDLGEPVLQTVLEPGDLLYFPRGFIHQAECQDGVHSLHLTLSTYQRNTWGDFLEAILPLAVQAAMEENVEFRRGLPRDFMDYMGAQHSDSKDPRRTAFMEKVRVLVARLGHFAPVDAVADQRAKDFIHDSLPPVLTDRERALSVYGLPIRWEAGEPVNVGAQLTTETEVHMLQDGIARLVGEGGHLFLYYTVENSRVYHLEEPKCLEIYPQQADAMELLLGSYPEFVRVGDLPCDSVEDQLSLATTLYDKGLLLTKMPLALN
Briefly: NO66 MS (RapidFire) hydroxylation inhibition assay, Rpl8 peptide. The class given is biochemical.

In the next test the target is T2, MINA53 (Homo sapiens, UniProt Q8IUF8).
T2 construct: MINA53 (Met1-Val464 and Ala26-Val464); histidine tag (TEV-cleavable) (cleaved yes); made in house; host or cells: E. coli BL21(DE3)-R3-pRARE2
Briefly: MINA53 MS (RapidFire) hydroxylation inhibition assay, Rpl27a peptide. The test is classed as biochemical.

The target in a further test is T3, PCAF (Homo sapiens, UniProt Q92831).
T3 construct: purchased Reaction Biology Corporation, Malvern, PA, USA
Briefly: HotSpot KAT assay. The class given is biochemical. The following applies: means ± SD of three experiments, read-out: Residual Enzymatic Activity (%) PCAF. Here is the method: (§1) The ef fects of 1-13 on th e histone lysine acetyltr a nsferas e activity (KAT ) o f p300 and PCAF were
(§2) determined using the HotSpot KAT assay ( Reaction Biology Corporation, Malvern, PA, USA)
(§3) according to the supplier’s procedure. In brief, recombinant form s of catal ytic domains of PCAF
(§4) NaCl, 0.1 mM EDTA, 1 mM DTT, 1 mM PMSF, 1% (v/v) DMSO) fo r 1 h at 30 °C in the presenc e
(§5) or absence of various concentrations of the inhibitors. Histone H3 acetyl ation was assessed by
(§6) liquid scintillation counting using a Tri-Carb 2800TR Liquid Scintillation Analyzer
(§7) (PerkinElmer). Assays at fixed con centration doses were performed in triplicate and analyzed
(§8) using Excel and GraphPad Prism 6.0 software (GraphPad Software Inc., San Diego, CA).

In a further test the target is T4, p300 (Homo sapiens, UniProt Q09472).
T4 construct: purchased Reaction Biology Corporation, Malvern, PA, USA
T4 sequence (Q09472 1284-1673): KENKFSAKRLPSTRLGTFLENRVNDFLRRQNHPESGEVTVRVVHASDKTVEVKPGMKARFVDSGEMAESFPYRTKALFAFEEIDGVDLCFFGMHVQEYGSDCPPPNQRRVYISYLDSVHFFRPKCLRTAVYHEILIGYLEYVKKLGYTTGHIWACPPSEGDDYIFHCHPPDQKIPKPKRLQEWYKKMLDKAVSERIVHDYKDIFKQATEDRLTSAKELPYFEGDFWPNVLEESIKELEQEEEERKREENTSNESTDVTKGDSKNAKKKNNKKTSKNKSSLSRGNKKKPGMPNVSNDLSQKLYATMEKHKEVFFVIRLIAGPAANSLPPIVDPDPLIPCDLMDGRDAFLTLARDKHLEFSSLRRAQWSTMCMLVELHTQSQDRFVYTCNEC
Briefly: HotSpot KAT assay. The class given is biochemical. To be noted: read-out: Residual Enzymatic Activity (%) p300. The procedure: as §1, §2, §3, §4, §5, §6, §7, §8

Another test deals with U-87MG cells. Briefly: MTT cell viability, alone or in combination with doxorubicin; combination index. The following applies: 24 h. The class given is cell-based, human. Here is the method:
(§9) Twenty-four hours following seeding, exponentially growing cells were treated with the different compounds at concentrations ranging from 10 to 100 μM for 72–120 h. Aqueous DMSO (0.5%, v/v) was used as a control (untreated). Cell viability was determined by the 3-(4,5-dimethylthiazol-2-yl)-2,5-diphenyltetrazolium bromide (MTT) colorimetric assay (Sigma-Aldrich). In summary, exponentially growing cancer cells were seeded in sextuplicate in 96-well culture plates (1.5 × 10^3 cells/well). After 24 h, the compounds were added at concentrations ranging from 10 to 100 μM. The effect of compounds on cancer cell proliferation was assessed by measuring the MTT dye absorbance of the cells as reported.[52] For combination treatments, the cells were treated with each of three compounds, either alone or in combination with doxorubicin. In particular, U-87MG cells were treated with doxorubicin alone or in combination with different MINA53 inhibitors for 24 h. The effect of different compounds or combinations (drug concentration ratio 1:20, doxorubicin: compound) on U-87MG cancer cell viability was assessed by measuring the MTT dye absorbance of cells. The interaction between doxorubicin (Doxo) and different compounds was evaluated based on the combination index (CI) using the CI equation through CalcuSyn software (Biosoft, Cambridge, U.K.). Synergism CI < 0.9, additivity 0.9 < CI < 1.1, antagonism CI > 1.1.

Another test deals with HT-29 colon carcinoma. Put plainly: MTT cell viability assay. The class given is cell-based, human. To be noted: 72, 96, 120 h, 10 to 100 μM, 10′ to a similar extent as 10. Here is the method:
(§10) Human commercially available established cancer cell lines HT-29 colon carcinoma (ATCC, HTB-38), U-87MG glioblastoma (ATCC, HTB-14), and MNK-45 gastric cancer (a gift from Dr. M. Broggini, Mario Negri Institute) were cultured in RPMI medium (Euroclone, Milan, IT) supplemented with 10% inactivated fetal bovine serum (HyClone, Thermo Scientific, South Logan, UT), 1% L-glutamine (Euroclone), and 100 μg/mL penicillin/streptomycin (Euroclone). HEK293T and HeLa cells were cultured in Dulbecco’s Modified Eagle Medium (DMEM, Gibco) supplemented with 10% (v/v) fetal bovine serum (FBS, Sigma) and 100 international units/mL (IU/mL) penicillin and 100 μg/mL streptomycin (Gibco). The cells were routinely tested for mycoplasma contamination and STR-authenticated.
as §9

The next test concerns MNK-45 gastric carcinoma. Put plainly: MTT cell viability assay. The class given is cell-based, human. The following applies: 72, 96, 120 h, 10 to 100 μM, 10′ to a similar extent as 10. Here is the method: as §10, §9
(Formazan colour is commonly taken as a measure of viable cells.)

In a further test the test system is U-87MG malignant glioma. Briefly: MTT cell viability assay. The test is classed as cell-based, human. To be noted: 72, 96, 120 h, 10 to 100 μM, 10′ to a similar extent as 10. Here is the method: as §10, §9
The mark [1] stands for this setting: NO66 (Ser183-Asn641), means ± 95% confidence, n = 3, read-out: IC50 value, NO66 (assay validation, Figure S7).
Where [2] appears, read: MINA53 (Met1-Val464), means ± 95% confidence, n = 3, read-out: IC50 value, MINA53 (assay validation, Figure S7).
[3] abbreviates: Table S12, read-out: NO66 IC50 (Table S12).

Entries after “also recorded” stand apart in the source; their conditions may differ. Read-outs that look alike come from different tables or passages of the source.

T2 sequence (Q8IUF8 1-464 isoform Q8IUF8-4): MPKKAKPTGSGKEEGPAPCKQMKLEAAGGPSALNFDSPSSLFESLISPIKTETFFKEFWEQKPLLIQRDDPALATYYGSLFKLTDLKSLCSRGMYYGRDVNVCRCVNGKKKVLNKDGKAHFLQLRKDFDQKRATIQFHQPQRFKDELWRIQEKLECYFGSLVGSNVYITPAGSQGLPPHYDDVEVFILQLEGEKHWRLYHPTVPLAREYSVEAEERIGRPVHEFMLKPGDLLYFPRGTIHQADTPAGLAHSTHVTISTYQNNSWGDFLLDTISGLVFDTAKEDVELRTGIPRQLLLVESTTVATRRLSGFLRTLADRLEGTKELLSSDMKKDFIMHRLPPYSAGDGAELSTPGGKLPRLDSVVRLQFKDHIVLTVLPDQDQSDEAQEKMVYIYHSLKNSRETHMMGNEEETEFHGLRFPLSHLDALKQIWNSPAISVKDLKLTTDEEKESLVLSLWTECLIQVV
T3 sequence (Q92831 492-658): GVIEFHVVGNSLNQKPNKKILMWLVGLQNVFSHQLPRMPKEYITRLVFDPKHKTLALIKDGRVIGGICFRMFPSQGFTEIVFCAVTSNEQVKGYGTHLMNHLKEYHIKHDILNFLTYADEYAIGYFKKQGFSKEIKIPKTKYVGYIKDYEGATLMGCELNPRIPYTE

Regarding `O=C(O)CNC(=O)C(=O)O` [NOG, N-oxalylglycine, reference compound], the half-inhibitory concentration (IC50) (usually the midpoint of a concentration-inhibition curve) at NO66 (setting [1]) was 3.5 µM; on MINA53 (setting [2]), 1.8 µM.

Regarding `O=C(O)CCNc1cc(N2CCc3ccccc3CC2)nc(-c2ccccn2)n1` [GSK-J1, reference compound], the “inhibition of NO66 at 100 μM” value on NO66 (at 100 μM) is reported as “did not show significant inhibition”. Also, the inhibition (in general, the drop in the measured response relative to a control, in per cent) at 100 µM at NO66 (read-out: inhibition of NO66 at 100 μM) stood at 30%. The “inhibition of MINA53 at 100 μM” value against MINA53 (at 100 μM) is listed as “did not show significant inhibition; also recorded: No inhibition”.

On to `CCCCCCCCCCCCCCCc1cccc(O)c1C(=O)O` [Anacardic Acid (AA), reference compound], for which the remaining activity at 100 µM at PCAF stood at 4.7 ± 0.3%; at p300, 0.9 ± 0.01%.

With `COc1cccc2c1C(=O)c1c(O)c3c(c(O)c1C2=O)C[C@@](O)(C(=O)CO)C[C@@H]3O[C@H]1C[C@H](N)[C@H](O)[C@H](C)O1` [doxorubicin, reference compound], the “cell viability, single compound treatment” value with U-87MG cells is “reduced cell viability in a dose-dependent manner”.

For the molecule `COC(=O)c1cnc(SCCCc2ccccc2)[nH]c1=O` [10′, Methyl 2-((3-phenylpropyl)thio)-3,4-dihydro-4-oxopyrimidine-5-carboxylate], the IC50 is 20.1 µM on NO66 (setting [3]) and over 100 µM at MINA53 (Table S12, read-out: MINA53 IC50 (Table S12)). Moreover, in the test on HT-29 colon carcinoma, the “effect on cell viability, HT-29” value is listed as “reduced the cell viability”. In the test on MNK-45 gastric carcinoma, the “effect on cell viability, MNK-45” value was “reduced the cell viability”. Further, the “effect on cell viability, U-87MG” value in the test on U-87MG malignant glioma was “reduced the cell viability”.

For the molecule `O=C(O)c1ccc(O)c2ncccc12` [IOX-1, reference compound], the figures for the IC50 on NO66 (setting [1]) and on MINA53 (setting [2]) were 38.5 µM and 102 µM, respectively.

As to `O=C(O)c1ccnc(C(=O)O)c1` [2,4-PDCA, pyridine-2,4-dicarboxylate, reference compound], the values for the concentration for half-maximal inhibition (IC50) at NO66 (setting [1]) and at NO66 (setting [3]) were 0.11 µM and 0.168 µM, respectively.
